# Assay results taken from patent publication US5130300A, “Method for enhancing growth of mammary parenchyma” (Monsanto Company, priority 1987, dated 1992).
# Tests used:
# [1] = tested on: Quarter-Udders in Pregnant Beef Cows; assay: Intramammary infusion of hEGF or mEGF, quarter-udder weights and DNA (Examples 1-2); type: in vivo, cross-bred beef cows; details: 25 micrograms per infusion, days 1,3,5,7,9, Freund's emulsion
# Description: 12 pregnant, non-lactating, cross-bred beef cows within their last 40-80 days of gestation were housed in a free-stall facility, fed a ration of alfalfa hay and pelleted concentrate, and administered 10 ml of an excipient (Freund's Incomplete Adjuvant emulsified with an equal volume of 0.9% sterile saline) into each quarter-udder by intramammary infusion through the streak canal on days 1, 3, 5, 7 and 9 of this study. Infusions were carried out using a 3.2 centimeter long, approximately 12 gauge, blunt-tipped plastic teat infusion cannula obtained from Jorgensen Laboratories, Loveland, Colo. Because front and rear udder halves are not of equal size, treatment vs. control comparisons were made between laterally opposite quarters, i.e., front right vs. front left and rear right vs. rear left. Treatments were randomly assigned to right or left udder-halves, with the contralateral half serving as its control. […] (the other 6 animals).
# Prior to treatment, each animal was teatdipped for 3 consecutive days and each teat was pre-cleaned with 70% ethanol in water on the day of treatment. On day 14 the cows were sacrificed and their mammary glands excised. Each udder (milked out if necessary) was skinned, divided along the median suspensory ligament and then into front right, front left, rear right and rear left udder quarters. Each quarter-udder was ground, a representative 200 gm sample was homogenized with 4 times its volume of water, and the total homogenate volume of each was measured.
# To determine dry weight of each quarter-udder, three 10 ml aliquots of a 1:5 diluted homogenate were placed in pre-weighed pans, dried overnight at 60° and then dried and weighed to a consistent value.
# To determine dry fat-free tissue weight of each quarter-udder, three 5 ml aliquots of the undiluted homogenate were extracted by the method of Anderson, 41 J. Anim. Sci. 118 (1975) except that samples were placed in pre-weighed 25×150 mm glass centrifuge tubes and extracted overnight with 10 ml ethanol:ether (3:1), then centrifuged (5 min at 500 rpm) and the supernatant aspirated; an additional 10 ml aliquot of ethanol:ether was added for a second extraction; and the sample was dried under nitrogen until a consistent value was obtained.
# DNA in each quarter-udder was determined by the method of Burton, 12B Methods in Enzymol. 163-66 (1968) using an assay solution of 15% trichloroacetic acid (TCA) in 2N HCl. In these determinations, aliquots of gland homogenate were diluted 1:5 with water and rehomogenized. Using triplicate 0.25 ml or 0.5 ml aliquots of these homogenates, each aliquot was mixed with 2 ml of the assay solution. After 30 min, the samples were centrifuged for 10 min at 3000 rpm and the resulting pellets were washed with 2 ml of a 10% solution of TCA in distilled water. After recentrifugation, the resulting pellets were disrupted in 2 ml of 0.5N perchloric acid and heated for 30 min at 70° to extract DNA. Samples were centrifuged and 1 ml of each resulting supernatant was placed in a 12×75 mm tube. After addition of 2 ml of a solution of 1.5 g diphenylamine and 1.5 ml H2 SO4 in 100 ml glacial acetic acid (and 0.1 ml of 1.6% aqueous acetaldehyde per 20 ml reagent just prior to use), the samples were vortexed and incubated overnight at 27°. Calf thymus DNA was the standard.
# [2] = tested on: Quarter-Udders in Pregnant Beef Cattle; assay: Intramammary infusion of prostaglandin E1 or E2, quarter-udder weights and DNA (Examples 25-28); type: in vivo, cross-bred beef cows; details: for DNA, % Increase, (A-B)/B / DNA, Mean Increase (A-B) / Dry Fat-Free Weight, % Increase, (A-B)/B / Dry Fat-Free Weight, Mean Increase (A-B) / Dry Weight, % Increase, (A-B)/B / Dry Weight, Mean Increase (A-B) / Wet Weight, % Increase, (A-B)/B / Wet Weight, Mean Increase (A-B): B = excipient only
# Description: 24 pregnant, non-lactating, cross-bred beef cows in their last 45-105 days of gestation were housed in a free-stall facility, fed a ration of alfalfa hay and pelleted concentrate, and administered 5 ml of an excepient (MCT-Oil, a Mead Johnson Corp. medium chain triglyceride which is a lipid fraction of coconut oil consisting primarily of triglycerides of C8 and C10 fatty acids as follows: C8 -67%; C10 -23%; <C8 -6%; >C10 -4%) into each quarter-udder by intramammary infusion through the streak cannal on days 1, 3, 5, 7 and 9 of this study. The 48 front and rear udder halves were randomly divided into 4 groups, with one quarter of each udder half treated and its laterally opposite quarter-udder used as a control. In the treatment infusions, the excipient contained Prostaglandin (PG) E1 or E2 from Sigma Chemical Co., St. Louis, Mo. (Catalog Nos. 86F-0406 and -0404). The amounts of PG in each infusion were: Group 1-87.5 micrograms of E2; Group 2-875 micrograms of E2; Group 3-87.5 micrograms of E1; Group 4-875 micrograms of E1. Animals were prepared and infused as in Examples 23-24; the effects were determined as in Examples 1-2. Results for Groups 1-4 are in Tables 15-18, respectively.
# [3] = B = opposite quarter, excipient only
# [4] = total of 0.4375 milligrams (87.5 micrograms per infusion) in MCT-Oil
# [5] = total of 0.4375 milligrams in MCT-Oil
# [6] = total of 4.375 milligrams (875 micrograms per infusion) in MCT-Oil
# [7] = total of 4.375 milligrams in MCT-Oil
Compound,"DNA, Treatment Mean [2, 4] [mg]","Dry Fat-Free Weight, Treatment Mean [2, 4] [g]","Dry Weight, Treatment Mean [2, 4] [g]","Wet Weight, Treatment Mean [2, 4] [g]","DNA, % Increase, (A-B)/B [2, 5] [%]","DNA, Mean Increase (A-B) [2, 5] [mg]","Dry Weight, % Increase, (A-B)/B [2, 5] [%]","Dry Weight, Mean Increase (A-B) [2, 5] [g]","Wet Weight, % Increase, (A-B)/B [2, 5] [%]","Wet Weight, Mean Increase (A-B) [2, 5] [g]","DNA, Treatment Mean [2, 6] [mg]","Dry Fat-Free Weight, Treatment Mean [2, 6] [g]","Dry Weight, Treatment Mean [2, 6] [g]","Wet Weight, Treatment Mean [2, 6] [g]","DNA, % Increase, (A-B)/B [2, 7] [%]","DNA, Mean Increase (A-B) [2, 7] [mg]","Dry Fat-Free Weight, % Increase, (A-B)/B [2, 7] [%]","Dry Fat-Free Weight, Mean Increase (A-B) [2, 7] [g]","Dry Weight, % Increase, (A-B)/B [2, 7] [%]","Dry Weight, Mean Increase (A-B) [2, 7] [g]",further results
"mEGF: mouse EGF, culture-grade, from mouse submaxillary glands, Collaborative Research Corp. Catalog No. 40001 (NSYPGCPSSYDGYCLNGGVCMHIESLDSYTCNCVIGYSGDRCQTRDLRWWELR; not fully specified; Epidermal growth factor; UniProt P01132 977-1029, looked up)",–,–,–,–,–,–,–,–,–,–,–,–,–,–,–,–,–,–,–,–,"DNA, % Increase, (A-B)/B [1, 3]: 13.8%; DNA, Mean Increase (A-B) [1, 3]: 110.2 mg; Dry Fat-Free Weight, % Increase, (A-B)/B [1, 3]: 7.9%; Dry Fat-Free Weight, Mean Increase (A-B) [1, 3]: 5.0 g; Dry Weight, % Increase, (A-B)/B [1, 3]: 1.6%; Dry Weight, Mean Increase (A-B) [1, 3]: 2.3 g; Wet Weight, % Increase, (A-B)/B [1, 3]: 4.4%; Wet Weight, Mean Increase (A-B) [1, 3]: 17.6 g; DNA, Treatment Mean ([1]; day 14): 905.1 mg; Dry Fat-Free Weight, Treatment Mean ([1]; day 14): 69.6 g; Dry Weight, Treatment Mean ([1]; day 14): 150.2 g; Wet Weight, Treatment Mean ([1]; day 14): 419.6 g; DNA, Avg % Increase/Animal ([1]; vs excipient-only quarter): 12.0%; Dry Fat-Free Weight, Avg % Increase/Animal ([1]; vs excipient-only quarter): 5.2%; Dry Weight, Avg % Increase/Animal ([1]; vs excipient-only quarter): 2.1%; Wet Weight, Avg % Increase/Animal ([1]; vs excipient-only quarter): 1.8%"
"CCCCC[C@H](O)/C=C/[C@H]1[C@H](O)CC(=O)[C@@H]1C/C=C\CCCC(=O)O [Prostaglandin E2, [5Z,11α,13E,15S]-11,15-Dihydroxy-9-oxoprosta-5,13-dien-1-oic acid]",5203,351.8,525.5,1966.9,10.1,479,8.3,40.6,13.3,231.4,3397,194.5,312.7,1030.8,44.6,1049,34.8,50.2,42.8,93.7,"Dry Fat-Free Weight, % Increase, (A-B)/B [2, 5]: 18.1%; Dry Fat-Free Weight, Mean Increase (A-B) [2, 5]: 54.0 g; Wet Weight, % Increase, (A-B)/B [2, 7]: 38.9%; Wet Weight, Mean Increase (A-B) [2, 7]: 288.8 g"
"CCCCC[C@H](O)/C=C/[C@H]1[C@H](O)CC(=O)[C@@H]1CCCCCCC(=O)O [Prostaglandin E1, [11α,13E,15S]-11,15-Dihydroxy-9-oxoprost-13-en-1-oic acid]",2881,180.9,259.3,972.5,26,597,23.0,48.7,25.0,194.5,4218,247.7,379.6,1435.5,51.1,1426,31.0,58.7,41.5,111.4,"Wet Weight, % Increase, (A-B)/B [2, 7]: 51.2%; Wet Weight, Mean Increase (A-B) [2, 7]: 486.2 g"
